CC1=NNC(=O)N(/N=C/c2cccnc2)C1
solubility (mole fraction)
Details | 278.15 K | 283.15 K | 288.15 K | 293.15 K | 298.15 K | 303.15 K | 308.15 K | 313.15 K | 318.15 K
in 1,4-dioxane | – | – | 0.000462 | 0.00054 | 0.000629 | 0.000728 | 0.000842 | 0.000964 | 0.0011
in DMF | 0.0031 | 0.00347 | 0.00398 | 0.00451 | 0.00515 | 0.00582 | 0.00656 | 0.00738 | 0.00832
in DMSO | – | – | – | 0.00762 | 0.00862 | 0.00985 | 0.0112 | 0.0126 | 0.0144
in NMP | 0.00163 | 0.00189 | 0.0022 | 0.00255 | 0.00295 | 0.00338 | 0.00389 | 0.00444 | 0.00506
in isopropanol | 0.000198 | 0.000232 | 0.00028 | 0.000331 | 0.000391 | 0.000461 | 0.00054 | 0.000625 | 0.000729
in n-butanol | 0.000159 | 0.00019 | 0.000229 | 0.000277 | 0.000332 | 0.000389 | 0.00046 | 0.000537 | 0.000635

Source: BigSolDB 2.1
